In patent EP4670739A1, “ALBUMIN CONJUGATE, METHOD FOR PRODUCING SAME, AND COMPOSITION FOR TARGETING, DIAGNOSING, OR TREATING CANCER COMPRISING SAME” (Kytecbio Co., Ltd., priority 2023, dated 2024):

Experiment: ROS production according to lysine concentration
Conditions: 10 µM B3 mixed with about 1.0 mM monomeric lysine, PBS pH 7.4, light of about 530 nm
Description: • i) 1.0 mM lysine (hereinafter, Lys) was mixed in PBS buffer solution (pH 7.4) and irradiated with light of about 530 nm. The fluorescence generated over time was measured using a Scinco FS-2, and results thereof are shown in FIG. 7A. • ii) The result of mixing 10 µM boron-containing compound B3 instead of the 1.0 mM lysine (Lys) is shown in FIG. 7B, iii) the result of mixing 10 µM boron-containing compound B3 and 0.1 mM lysine (Lys) instead of the 1.0 mM lysine (Lys) is shown in FIG. 7C, and iv) the result of mixing 10 µM boron-containing compound B3 and 1.0 mM lysine (Lys) instead of the 1.0 mM lysine (Lys) is shown in FIG. 7D.

## O=Cc1cc2ccccc2cc1NCc1ccccc1B(O)O [B3]
  reactive oxygen species generated: relatively large amount
